Assay results as given in ChEMBL document CHEMBL1201862, “PubChem BioAssay data set” (2004).
Activity calls are given as the source filed them.

Columns and labels:
[1] = Luminescence Cell-Based Dose Retest to Confirm Inhibitors of Cancer Stem Cells. [Related pubchem assays (depositor defined):AID2717, AID2721]; assay type: functional, Homo sapiens
Streptokinase A = target: T1, Streptokinase A (Streptococcus pyogenes serotype M1, UniProt P10520); experiment: S. pyogenes streptokinase expression inhibitors, potency, dose response, plasminogen activation absorbance, OD405 (AID 1914); assay type: functional, Streptococcus pyogenes M1 GAS;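 further: secreted streptokinase activity via plasminogen activation per viability signal from cell pellet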
T1 sequence (P10520 whole entry): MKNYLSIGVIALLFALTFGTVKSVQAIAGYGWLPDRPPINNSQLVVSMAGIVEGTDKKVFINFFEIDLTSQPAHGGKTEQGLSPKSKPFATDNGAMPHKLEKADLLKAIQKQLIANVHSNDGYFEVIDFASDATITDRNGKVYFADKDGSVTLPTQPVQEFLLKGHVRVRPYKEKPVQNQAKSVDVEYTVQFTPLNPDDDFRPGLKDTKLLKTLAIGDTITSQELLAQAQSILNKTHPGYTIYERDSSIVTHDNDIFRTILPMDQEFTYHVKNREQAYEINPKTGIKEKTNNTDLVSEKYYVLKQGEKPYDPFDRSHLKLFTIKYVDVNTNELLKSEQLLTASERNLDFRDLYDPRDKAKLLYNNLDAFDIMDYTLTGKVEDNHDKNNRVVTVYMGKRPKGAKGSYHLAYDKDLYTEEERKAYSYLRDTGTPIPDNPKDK

[2] = system: Streptococcus sp. 'group A'; experiment: growth inhibition of control SK(-) GAS strain, dose response, counter-screen for streptokinase expression inhibitor project, luminescence, kanamycin, BacTiterGlo, confirmation (AID 1900); assay type: functional, organism-based
Streptococcus = experiment: Group A Streptococcus viability loss, dose response, counter-screen for streptokinase expression inhibitor project, luminescence, BacTiterGlo (AID 1915); assay type: functional, organism-based;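 further: potency for reduction of bacterial viability or growth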
[3] = target: T2, Heat shock factor protein 1 (Mus musculus, UniProt P38532); experiment: HSF1 potentiators in luciferase reporter cells, confirmation, cell-based, NIH3T3, luminescence, dose retest (AID 435004); assay type: functional;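 further: stress induced by proteasome inhibitor MG132 added 30 min after compound; luciferase reporter driven by HSF1 response element in NIH3T3 cells; actives raise luminescence as potentiators of the MG132 stress response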
T2 sequence (P38532 whole entry): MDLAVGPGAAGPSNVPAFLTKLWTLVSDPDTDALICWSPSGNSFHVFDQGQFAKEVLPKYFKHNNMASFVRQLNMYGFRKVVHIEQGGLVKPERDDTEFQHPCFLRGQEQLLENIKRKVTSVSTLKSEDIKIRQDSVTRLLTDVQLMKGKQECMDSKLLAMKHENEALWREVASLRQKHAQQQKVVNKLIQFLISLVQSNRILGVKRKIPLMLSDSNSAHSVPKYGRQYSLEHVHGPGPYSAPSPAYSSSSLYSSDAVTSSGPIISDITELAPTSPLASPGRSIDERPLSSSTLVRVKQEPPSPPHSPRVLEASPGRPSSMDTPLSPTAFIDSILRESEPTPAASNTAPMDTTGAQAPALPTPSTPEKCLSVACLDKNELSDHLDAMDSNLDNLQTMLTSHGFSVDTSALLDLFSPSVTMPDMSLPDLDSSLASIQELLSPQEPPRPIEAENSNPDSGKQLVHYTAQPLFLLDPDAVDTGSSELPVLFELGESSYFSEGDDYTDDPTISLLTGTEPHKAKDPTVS

Cytochrome P450 2C9 = Cytochrome P450 2C9 (Homo sapiens, UniProt P11712)
INS1 = experiment: beta cell apoptosis inhibitors, cytokine rescue, dose response, luminescence, retest (AID 449756); assay type: functional, cell-based; conditions: Rattus norvegicus;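 further: cell death triggered by IL-1 beta plus TNF-alpha plus IFN-gamma mixture; protective hits raise ATP signal compared with cytokine alone wells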
Cytochrome P450 1A2 = target: T3, Cytochrome P450 1A2 (Homo sapiens, UniProt P05177);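 further: PubChem cytochrome P450 panel assay, CYP1A2 panel member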
T3 sequence (P05177 whole entry): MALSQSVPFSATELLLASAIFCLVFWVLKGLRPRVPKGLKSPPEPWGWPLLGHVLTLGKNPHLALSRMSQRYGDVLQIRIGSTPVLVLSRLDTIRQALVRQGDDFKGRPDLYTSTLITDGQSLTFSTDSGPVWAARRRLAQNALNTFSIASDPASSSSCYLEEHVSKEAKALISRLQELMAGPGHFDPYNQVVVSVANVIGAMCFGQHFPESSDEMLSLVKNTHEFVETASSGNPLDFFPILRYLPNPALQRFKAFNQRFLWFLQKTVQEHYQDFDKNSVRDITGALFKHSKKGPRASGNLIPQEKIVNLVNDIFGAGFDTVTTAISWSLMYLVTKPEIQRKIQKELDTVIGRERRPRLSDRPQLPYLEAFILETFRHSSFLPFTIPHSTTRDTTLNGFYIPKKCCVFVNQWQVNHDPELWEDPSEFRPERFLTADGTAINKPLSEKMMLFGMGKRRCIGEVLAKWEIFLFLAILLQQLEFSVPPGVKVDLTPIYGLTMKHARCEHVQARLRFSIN

Protein RecA = target: T4, Protein RecA (Mycobacterium tuberculosis, UniProt P9WHJ3); experiment: Fluorescence Cell-Free Homogeneous Dose Retest to Identify Inhibitors of RecA-Intein Splicing Activity. [Related pubchem assays (depositor defined):AID2097, AID2223, AID489010, AID492950]; assay type: functional
T4 sequence (P9WHJ3 whole entry): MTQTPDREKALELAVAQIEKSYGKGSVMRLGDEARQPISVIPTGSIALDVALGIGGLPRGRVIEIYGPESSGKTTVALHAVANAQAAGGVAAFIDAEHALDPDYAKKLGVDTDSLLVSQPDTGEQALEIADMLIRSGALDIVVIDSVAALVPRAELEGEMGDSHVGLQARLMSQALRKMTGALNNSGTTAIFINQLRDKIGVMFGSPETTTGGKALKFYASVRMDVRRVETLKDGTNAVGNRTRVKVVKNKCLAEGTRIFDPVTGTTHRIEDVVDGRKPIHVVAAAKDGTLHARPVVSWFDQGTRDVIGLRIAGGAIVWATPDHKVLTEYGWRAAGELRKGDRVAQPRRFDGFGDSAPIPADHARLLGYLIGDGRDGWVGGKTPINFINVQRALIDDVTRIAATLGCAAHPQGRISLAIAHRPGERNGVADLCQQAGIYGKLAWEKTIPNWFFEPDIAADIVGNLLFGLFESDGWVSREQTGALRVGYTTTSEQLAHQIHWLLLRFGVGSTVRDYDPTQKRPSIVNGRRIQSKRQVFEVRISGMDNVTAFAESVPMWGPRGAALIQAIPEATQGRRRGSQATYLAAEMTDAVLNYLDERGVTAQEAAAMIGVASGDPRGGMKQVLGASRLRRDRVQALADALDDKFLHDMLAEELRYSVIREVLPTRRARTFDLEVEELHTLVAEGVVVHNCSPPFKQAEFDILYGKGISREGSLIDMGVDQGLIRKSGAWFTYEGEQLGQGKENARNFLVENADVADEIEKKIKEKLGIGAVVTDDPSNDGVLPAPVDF

[4] = target: T5, Replicative DNA helicase DnaB (Mycobacterium tuberculosis, UniProt P9WMR3); experiment: DnaB intein splicing inhibitors, dose response, biochemical, cell-free fluorescence (AID 449749); assay type: functional
T5 sequence (P9WMR3 whole entry): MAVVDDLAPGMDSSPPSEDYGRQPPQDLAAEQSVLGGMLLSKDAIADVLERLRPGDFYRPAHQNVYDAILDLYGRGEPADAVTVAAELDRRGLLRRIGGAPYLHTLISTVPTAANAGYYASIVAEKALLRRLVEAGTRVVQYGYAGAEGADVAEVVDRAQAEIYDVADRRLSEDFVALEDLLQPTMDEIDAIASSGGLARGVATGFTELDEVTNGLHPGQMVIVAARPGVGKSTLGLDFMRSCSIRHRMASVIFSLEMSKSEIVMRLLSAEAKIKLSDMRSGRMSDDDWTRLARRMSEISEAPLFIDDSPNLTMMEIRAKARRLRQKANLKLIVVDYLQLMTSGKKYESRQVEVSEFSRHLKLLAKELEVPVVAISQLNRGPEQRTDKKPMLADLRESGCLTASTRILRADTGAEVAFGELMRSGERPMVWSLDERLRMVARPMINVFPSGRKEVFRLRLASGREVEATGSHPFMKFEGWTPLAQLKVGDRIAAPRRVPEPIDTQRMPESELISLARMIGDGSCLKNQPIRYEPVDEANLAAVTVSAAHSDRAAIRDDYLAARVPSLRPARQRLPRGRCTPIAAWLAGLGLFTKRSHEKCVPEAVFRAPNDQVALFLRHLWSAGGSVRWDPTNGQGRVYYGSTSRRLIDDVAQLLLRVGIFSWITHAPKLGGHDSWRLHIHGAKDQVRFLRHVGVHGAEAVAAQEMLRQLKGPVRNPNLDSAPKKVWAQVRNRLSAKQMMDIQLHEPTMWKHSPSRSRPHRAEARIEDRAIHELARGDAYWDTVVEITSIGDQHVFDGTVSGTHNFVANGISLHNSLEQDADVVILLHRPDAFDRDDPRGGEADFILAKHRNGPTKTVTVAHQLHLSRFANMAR

Chain of Cytochrome P450 2C9 (P11712 whole entry): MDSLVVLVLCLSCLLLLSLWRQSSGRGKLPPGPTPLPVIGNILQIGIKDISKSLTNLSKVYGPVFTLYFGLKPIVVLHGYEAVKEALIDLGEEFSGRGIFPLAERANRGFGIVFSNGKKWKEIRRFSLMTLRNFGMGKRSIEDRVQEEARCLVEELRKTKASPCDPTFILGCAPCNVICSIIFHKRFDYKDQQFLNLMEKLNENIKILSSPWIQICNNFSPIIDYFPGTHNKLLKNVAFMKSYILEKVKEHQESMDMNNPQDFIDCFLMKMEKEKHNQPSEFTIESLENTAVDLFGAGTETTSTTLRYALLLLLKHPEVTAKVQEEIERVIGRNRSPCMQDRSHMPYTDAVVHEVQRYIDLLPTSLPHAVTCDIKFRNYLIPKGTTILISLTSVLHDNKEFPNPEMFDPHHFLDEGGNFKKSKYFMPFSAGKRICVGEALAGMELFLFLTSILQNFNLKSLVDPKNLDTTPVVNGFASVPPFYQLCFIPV

O=c1cc(N2CCCCC2)c(-c2ccccc2)nn1Cc1ccc(Cl)cc1Cl
AC50 ([1]; Homo sapiens): 1.65 µM (active)
EC50 (Streptokinase A): > 150 µM (not active)
EC50 [2]: 3.19 µM (active)
EC50 (Streptococcus): 8.6 µM (active)

COc1ccc(-n2nc3c(N4CCC(C(=O)NCCc5ccccc5C)CC4)nnc(C)c3c2C)cc1
AC50 ([1]; Homo sapiens): 4.03 µM (active)

CN1CCN(Cc2c(O)ccc3cc(Br)ccc23)CC1
EC50 [3]: 11.2 µM (active)

COc1cc(OC)cc(-c2nnc(SCC(=O)N(Cc3ccccc3)C(C)(C)C)o2)c1
AC50 ([1]; Homo sapiens): 0.618 µM (active)

Cc1ccc(CSc2nc3ccccc3c(=O)n2CCCC(=O)NCc2ccco2)cc1
EC50 [3]: > 260 µM (inactive)

CCc1cc2c(SCC#N)ncnc2s1
EC50 [3]: > 260 µM (inactive)

O=C(Nc1cc(C(F)(F)F)ccc1N1CCCCC1)c1ccc(Br)o1
AC50 ([1]; Homo sapiens): 4.94 µM (active)
AC50 (Cytochrome P450 2C9): 1.41 µM (inconclusive)

C=CCNC(=O)c1c(N)n(Cc2ccco2)c2nc3ccccc3nc12
EC50 [3]: 43.4 µM (active)

COc1ccc2[nH]c(C)c(CCNc3ccc(C(F)(F)F)cc3[N+](=O)[O-])c2c1
EC50 [3]: > 260 µM (inactive)

O=c1c2ccccc2[nH]c(=S)n1CCC1=CCCCC1
EC50 [3]: > 260 µM (inactive)

FC(F)(F)c1ccc(Sc2nnc(-c3cccs3)n2CC2CCCO2)nc1 (centres undefined)
EC50 [3]: > 260 µM (inactive)

CCCc1nc2oc3cc(OC)ccc3c(=O)c2c(=O)n1CCc1ccccc1
EC50 [3]: > 260 µM (inactive)

CCCOC(=O)c1ccc(Oc2c[nH]nc2-c2ccc(O)cc2O)cc1
EC50 [3]: > 260 µM (inactive)
EC50 (Streptokinase A): > 150 µM (not active)
EC50 [2]: > 150 µM (not active)
EC50 (Streptococcus): > 150 µM (not active)

CCC(NC(=O)/C(=C\c1ccc2c(c1)OCO2)NC(C)=O)C(=O)O (centres undefined)
EC50 [3]: > 260 µM (inactive)

COc1ccc(C2N(C(=O)CN3CCCC3)CCCN2S(=O)(=O)c2ccccc2)cc1 (centres undefined)
EC50 [3]: > 260 µM (inactive)

COc1ccc(NC(=O)COC(=O)/C=C/C(=O)OCC(=O)Nc2ccc(OC)c(Cl)c2)cc1Cl
EC50 [3]: 6.53 µM (active)

O=C1c2ccccc2C(=O)N1CCC(=O)N1CCCc2ccccc21
EC50 [3]: > 260 µM (inactive)

Cc1nc(S(=O)(=O)c2ccc(Cl)cc2)c(NCc2ccccc2)o1
EC50 [3]: > 260 µM (inactive)

CC[C@@H]1CC=C[C@H]2[C@H]1C(=O)N(Cc1ccccc1)[C@H]2c1ccc(OC)c(Cl)c1
AC50 ([1]; Homo sapiens): 6.12 µM (active)
EC50 (Streptokinase A): 4.05 µM (active)
EC50 [2]: 6.67 µM (active)
EC50 (Streptococcus): 16 µM (active)

COC(=O)Cn1c2ccc(OC)cc2c2nc(C)sc21
EC50 [3]: > 260 µM (inactive)

O=C(/C(=C\c1ccccc1)c1nc2ccccc2[nH]1)c1ccc(Cl)cc1
AC50 ([1]; Homo sapiens): 3.28 µM (active)

O=C(Nc1ccc(Cl)cc1)Nc1csc([N+](=O)[O-])c1
EC50 [3]: 31.4 µM (active)
AC50 (INS1): 7.03 µM (active)

O=C(CN1C(=O)NC2(CCCC2)C1=O)NCCN1C(=O)S/C(=C\c2ccccc2F)C1=O
EC50 [3]: > 260 µM (inactive)

Cc1ccc(S(=O)(=O)c2c(C)cc(C)nc2N2CCCCC2)cc1
EC50 [3]: > 260 µM (inactive)

CC(Oc1ccc(Cl)cc1)C(=O)/C=C/N(C)C (centres undefined)
EC50 [3]: > 260 µM (inactive)
AC50 (Cytochrome P450 1A2): 15.8 µM (inconclusive)

CC(C)c1ccc(C2NC(=O)c3ccccc3O2)cc1 (centres undefined)
EC50 [3]: 21.2 µM (active)

O=C(CN1c2ccccc2S(=O)(=O)c2ccccc21)NCc1ccc(F)cc1
EC50 [3]: > 260 µM (inactive)

CCOC(=O)N1CCN(C(=O)CS(=O)(=O)c2cn(Cc3ccc(F)cc3)c3ccccc23)CC1
EC50 [3]: > 260 µM (inactive)

CCN(CC)S(=O)(=O)c1cccc(C(=O)N/N=C/c2cccc(O)c2O)c1
AC50 ([1]; Homo sapiens): 8.97 µM (active)

O=c1cc(-c2ccccc2)[nH]n1-c1nc2ccccc2s1
AC50 ([1]; Homo sapiens): 2.45 µM (active)
EC50 (Streptokinase A): > 150 µM (not active)
EC50 [2]: 2.43 µM (active)
EC50 (Streptococcus): 10.3 µM (active)

CNc1c(NS(=O)(=O)c2ccc(F)c(Cl)c2)c(=O)oc2ccccc12
EC50 [3]: > 260 µM (inactive)

COc1ccc2cc(/C=N/NC(=O)c3ccc(CN(c4cccc(Cl)c4Cl)S(C)(=O)=O)cc3)c(Cl)nc2c1
AC50 ([1]; Homo sapiens): < 0.16 µM (active)

CC(C)=CCCC1(C)C=Cc2c(ccc3c2[nH]c2cc(O)c(C)cc23)O1 (centres undefined)
AC50 ([1]; Homo sapiens): 2.9 µM (active)
EC50 [2]: 2.31 µM (active)
EC50 (Streptococcus): 6.72 µM (active)

CCN(CC)CCOc1ccc(/C(=C(/Cl)c2ccccc2)c2ccccc2)cc1 [CLOMIPHENE]
EC50 [3]: 129 µM (active)
AC50 [1]: 1.35 µM (active)
EC50 (Protein RecA): 12.4 µM (active)
AC50 [4]: 4.34 µM (active)
